Measurements reported in PubChem BioAssay (NCI).
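Briefly, cells in 96-well plates were exposed to five compound concentrations for 48 h, and endpoints were estimated by linear interpolation. At the GI50, growth is halved. Definition used: TGI = concentration required for complete inhibition of growth.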

Key:
Assay in all cases: NCI tumour cell line growth inhibition, 48 h
CAKI-1 renal = system: CAKI-1 renal
KM12 colon = system: KM12 colon
M14 melanoma = system: M14 melanoma
MALME-3M melanoma = system: MALME-3M melanoma
OVCAR-3 ovarian = system: OVCAR-3 ovarian
SF-295 CNS = system: SF-295 CNS
SN12C renal = system: SN12C renal
COLO 205 colon = system: COLO 205 colon
HOP-62 NSCLC = system: HOP-62 NSCLC
NCI-H522 lung = system: NCI-H522 lung

Row | SMILES | TGI (CAKI-1 renal) [µM] | TGI (KM12 colon) [µM] | TGI (M14 melanoma) [µM] | TGI (MALME-3M melanoma) [µM] | TGI (OVCAR-3 ovarian) [µM] | TGI (SF-295 CNS) [µM] | TGI (SN12C renal) [µM] | TGI (COLO 205 colon) [µM] | TGI (HOP-62 NSCLC) [µM] | TGI (NCI-H522 lung) [µM] | GI50 (CAKI-1 renal) [µM] | GI50 (COLO 205 colon) [µM] | GI50 (HOP-62 NSCLC) [µM] | GI50 (KM12 colon) [µM] | GI50 (M14 melanoma) [µM] | GI50 (MALME-3M melanoma) [µM] | GI50 (NCI-H522 lung) [µM] | GI50 (SF-295 CNS) [µM] | GI50 (SN12C renal) [µM]
1 | Cc1cc(=O)oc2c1cc(OCC(=O)OCCN1CCCCC1)c1occ(C)c12 | > 100 | > 100 | > 100 | > 100 | > 100 | > 100 | > 100 |  |  |  |  |  |  |  |  |  |  |  | 
2 | CCOC(=O)NC | > 100 | > 100 | > 100 | > 100 | > 100 | > 100 | > 100 | > 100 | > 100 |  |  |  |  |  |  |  |  |  | 
3 | Cn1c(Sc2ccc(-c3cccnc3)n2C)ccc1-c1cccnc1 | 36.5 | 33.6 | 37 | 23.3 | 27.3 | 38.6 | 39.6 | 38 | 36 | 23.9 |  |  |  |  |  |  |  |  | 
4 | O=C1c2ccccc2C(=O)c2c1ccc(C(=O)O)c2-c1ccc2ccccc2c1 | > 100 | > 100 | 54.1 | 70.7 | 65.3 | 81 | 88.8 | 30.1 | > 100 | 59.3 |  |  |  |  |  |  |  |  | 
5 | CCCCCCCCCCCCCCCCOCC(COP(=O)([O-])OCC[n+]1ccc(N(C)C)cc1)OCC (centres undefined) |  | 3.86 | 26.7 | 33 | 24.8 | 30.2 | 34.6 | 26.5 | 26.3 | 29.2 |  |  |  |  |  |  |  |  | 
6 | COc1cc2c(cc1Oc1ccc(OC)c3c1CC1c4c(cc(OC)c(OC)c4-3)CCN1C)CC1c3c(cc(OC)c(OC)c3-2)CCN1C (centres undefined) | 8.06 | 9.33 |  | 3.38 | 14.9 | 6.11 | 19.3 | 2.95 | 32.5 | 4.66 |  |  |  |  |  |  |  |  | 
7 | NC(=O)Nc1cc(O)ccc1N=Nc1ccc(S(=O)(=O)Nc2ccccn2)cc1 | > 100 | > 100 | > 100 | > 100 | > 100 | > 100 | > 100 | > 100 | > 100 | > 100 |  |  |  |  |  |  |  |  | 
8 | COc1cc(C)c2c(=O)c3c(oc2c1)C(=O)c1c(O)c(OC)cc(O)c1C3=O | 1.85 | 11.9 |  | 3.83 | 2.4 | 3.23 | 5.3 | > 43.4 | 3.98 | 9.17 |  |  |  |  |  |  |  |  | 
9 | COc1ccc(CC2c3cc(OC)c(OC)c(OC)c3CC[N+]2(C)C)cc1Oc1ccc(CC2c3cc4c(c(OC)c3CCN2C)OCO4)cc1 (centres undefined) | > 100 | > 100 | > 100 | > 100 | > 100 | > 100 | > 100 | > 100 |  | > 100 |  |  |  |  |  |  |  |  | 
10 | c1ccc2sc(SCN(C3CCCCC3)C3CCCCC3)nc2c1 | > 100 | > 100 | > 100 | > 100 | > 100 | > 100 |  |  | > 100 | > 100 |  |  |  |  |  |  |  |  | 
11 | COc1c(Cl)cc(S(=O)O)cc1Cl |  | > 100 | > 100 | > 100 | > 100 |  | > 100 |  | > 100 | > 100 |  |  |  |  |  |  |  |  | 
12 | COc1cc(O)c2c(c1)C(=O)c1cc(C)cc(O)c1C2=O | > 100 | > 100 | > 100 | > 100 | > 100 | > 100 | > 100 | > 100 | > 100 | > 100 |  |  |  |  |  |  |  |  | 
13 | O=C(O)C1=NNC(C(=O)O)=NN1 | > 100 | > 100 | > 100 | > 100 | > 100 | > 100 | > 100 | > 100 |  | > 100 |  |  |  |  |  |  |  |  | 
14 | Fc1ccc(-c2nnc3sc(COc4ccccc4Cl)nn23)cc1Cl | > 100 | > 100 | > 100 | > 100 |  | > 100 | > 100 | > 100 | > 100 | 36.3 | 76.6 | 43.7 | 49.5 | 77.1 | 34.9 | 70.9 | 18 | 61.8 | 31.9
15 | CC(CO)(CO)Nc1ncnc2ccccc12 | > 100 | > 100 | > 100 | > 100 | > 100 | > 100 | > 100 |  | > 100 | > 100 |  |  |  |  |  |  |  |  | 
16 | Nc1nnc(N)n1NC(=O)C(=O)Nc1ccc([N+](=O)[O-])cc1 | > 100 | > 100 |  | > 100 |  | > 100 | > 100 | > 100 | > 100 | > 100 |  |  |  |  |  |  |  |  | 
17 | CC1(O)CC23CC1CCC2(C)C12CCCC(C)(C(=O)O1)C2CC3O (centres undefined) | > 100 | > 100 | > 100 | > 100 |  | > 100 | > 100 | > 100 |  | > 100 |  |  |  |  |  |  |  |  | 
